Results reported in patent US20230085307A1, “PYRIDAZINONE COMPOUND AND HERBICIDE” (NISSAN CHEMICAL CORPORATION, priority 2019, published 2023).

Tests used:
oval-leafed pondweed [1] = experiment: Test Example 1: herbicidal activity, application before weed generation under submerged conditions (Table 16, symbol C); type: in vivo, oval-leafed pondweed (Monochoria vaginalis); conditions: amount of applied herbicide 320 g/ha
In short: (§1)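 Submerged Wagner pots (alluvial soil, 4 cm water) sown with weed seeds and planted with 2.5-leaf rice seedlings; emulsifiable concentrate diluted in water applied to water surface on sowing day. Held in greenhouse at 25-30 °C; injury scored 0-5 by herbicidal rate after three weeks.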

velvetleaf = experiment: Test Example 5: herbicidal effect by foliage application, plastic box (Table 20, symbol M); type: in vivo, velvetleaf (Abutilon theophrasti); conditions: foliage application, 320 g/ha, three weeks after application
In short: (§2)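 Post-emergence foliar test in sterilized diluvial soil. Compound applied as water-diluted emulsion at a predetermined rate to 14-day-old plants; evaluation at three weeks.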

Japanese bulrush [2] = experiment: Test Example 1: herbicidal activity, application before weed generation under submerged conditions (Table 16, symbol B); type: in vivo, Japanese bulrush (Schoenoplectus juncoides); conditions: amount of applied herbicide 320 g/ha
In short: as §1

late watergrass [3] = experiment: Test Example 2: herbicidal activity, application during weed generation under submerged conditions (Table 17, symbol A); type: in vivo, late watergrass (Echinochloa oryzicola); conditions: AAH 320 g/ha; application during weed generation, submerged conditions
In short: (§3)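 Alluvial soil in Wagner pots was flooded to 4 cm depth and sown with the three weeds together; pots were kept in a greenhouse at 25° C. to 30° C. At the one to two leaf stage, an emulsion formulation diluted in water to a set rate went onto the water surface; scored three weeks later.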

late watergrass [4] = experiment: Test Example 1: herbicidal activity, application before weed generation under submerged conditions (Table 16, symbol A); type: in vivo, late watergrass (Echinochloa oryzicola); conditions: amount of applied herbicide 320 g/ha
In short: as §1

persian speedwell = experiment: Test Example 5: herbicidal effect by foliage application, plastic box (Table 20, symbol R); type: in vivo, Persian speedwell (Veronica persica); conditions: foliage application, 320 g/ha, three weeks after application
In short: as §2

blackgrass = experiment: Test Example 5: herbicidal effect by foliage application, plastic box (Table 20, symbol J); type: in vivo, blackgrass (Alopecurus myosuroides); conditions: foliage application, 320 g/ha, three weeks after application
In short: as §2

Japanese bulrush [5] = experiment: Test Example 2: herbicidal activity, application during weed generation under submerged conditions (Table 17, symbol B); type: in vivo, Japanese bulrush (Schoenoplectus juncoides); conditions: AAH 320 g/ha; application during weed generation, submerged conditions
In short: as §3

Italian ryegrass = experiment: Test Example 5: herbicidal effect by foliage application, plastic box (Table 20, symbol K); type: in vivo, Italian ryegrass (Lolium multiflorum); conditions: foliage application, 320 g/ha, three weeks after application
In short: as §2

oval-leafed pondweed [6] = experiment: Test Example 2: herbicidal activity, application during weed generation under submerged conditions (Table 17, symbol C); type: in vivo, oval-leafed pondweed (Monochoria vaginalis); conditions: AAH 320 g/ha; application during weed generation, submerged conditions
In short: as §3

rice flat sedge = experiment: Test Example 3: herbicidal effect by foliage application, Wagner pot (Table 18, symbol E); type: in vivo, rice flat sedge (Cyperus iria); conditions: 320 g/ha
In short: (§4)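 Plants were sown in alluvial soil held under 0.1–0.5 cm standing water and grown 14 days in a greenhouse at 25–30 °C. An emulsifiable formulation, water-diluted to the set dose, was then sprayed onto the foliage, and effects were scored three weeks later using previously defined criteria.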

barnyard grass [7] = experiment: Test Example 3: herbicidal effect by foliage application, Wagner pot (Table 18, symbol H); type: in vivo, barnyard grass (Echinochloa crus-galli); conditions: 320 g/ha
In short: as §4

lambsquarters = experiment: Test Example 5: herbicidal effect by foliage application, plastic box (Table 20, symbol O); type: in vivo, lambsquarters (Chenopodium album); conditions: foliage application, 320 g/ha, three weeks after application
In short: as §2

Chinese sprangletop = experiment: Test Example 3: herbicidal effect by foliage application, Wagner pot (Table 18, symbol D); type: in vivo, chinese sprangletop (Leptochloa chinensis); conditions: 320 g/ha
In short: as §4

wild oat = experiment: Test Example 5: herbicidal effect by foliage application, plastic box (Table 20, symbol I); type: in vivo, wild oat (Avena fatua); conditions: foliage application, 320 g/ha, three weeks after application
In short: as §2

southern crabgrass = experiment: Test Example 5: herbicidal effect by foliage application, plastic box (Table 20, symbol F); type: in vivo, southern crabgrass (Digitaria ciliaris); conditions: foliage application, 320 g/ha, three weeks after application
In short: as §2

barnyard grass [8] = experiment: Test Example 5: herbicidal effect by foliage application, plastic box (Table 20, symbol H); type: in vivo, barnyard grass (Echinochloa crus-galli); conditions: foliage application, 320 g/ha, three weeks after application
In short: as §2

green foxtail = experiment: Test Example 5: herbicidal effect by foliage application, plastic box (Table 20, symbol G); type: in vivo, green foxtail (Setaria viridis); conditions: foliage application, 320 g/ha, three weeks after application
In short: as §2

windgrass = experiment: Test Example 5: herbicidal effect by foliage application, plastic box (Table 20, symbol L); type: in vivo, windgrass (Apera spica-venti); conditions: foliage application, 320 g/ha, three weeks after application
In short: as §2

Structure (SMILES) | Herbicidal effect, C: oval-leafed pondweed (oval-leafed pondweed [1]) | herbicidal effect on velvetleaf (M) (velvetleaf) | Herbicidal effect, B: Japanese bulrush (Japanese bulrush [2]) | herbicidal effect rating, A: late watergrass (late watergrass [3]) | Herbicidal effect, A: late watergrass (late watergrass [4]) | herbicidal effect on persian speedwell (R) (persian speedwell) | herbicidal effect on blackgrass (J) (blackgrass) | herbicidal effect rating, B: Japanese bulrush (Japanese bulrush [5]) | herbicidal effect on Italian ryegrass (K) (Italian ryegrass) | herbicidal effect rating, C: oval-leafed pondweed (oval-leafed pondweed [6]) | herbicidal effect on rice flat sedge (E) (rice flat sedge) | herbicidal effect on barnyard grass (H) (barnyard grass [7]) | herbicidal effect on lambsquarters (O) (lambsquarters) | herbicidal effect on Chinese sprangletop (D) (Chinese sprangletop) | herbicidal effect on wild oat (I) (wild oat) | herbicidal effect on southern crabgrass (F) (southern crabgrass) | herbicidal effect on barnyard grass (H) (barnyard grass [8]) | herbicidal effect on green foxtail (G) (green foxtail) | herbicidal effect on windgrass (L) (windgrass)
CCCC(=O)Oc1c(C)nn(C)c(=O)c1-c1c(-c2ccccc2OC)sc2cc(C)c(C)cc12 [5-091] | 3 (Herbicidal rate of 40% or more and less than 70%) | 4 (Herbicidal rate of 70% or more and less than 90%) | 3 (Herbicidal rate of 40% or more and less than 70%) | 3 (Herbicidal rate of 40% or more and less than 70%) | 3 (Herbicidal rate of 40% or more and less than 70%) | 3 (Herbicidal rate of 40% or more and less than 70%) | 4 (Herbicidal rate of 70% or more and less than 90%) | 2 (Herbicidal rate of 20% or more and less than 40%) | 4 (Herbicidal rate of 70% or more and less than 90%) | 3 (Herbicidal rate of 40% or more and less than 70%) | 3 (Herbicidal rate of 40% or more and less than 70%) | 4 (Herbicidal rate of 70% or more and less than 90%) | 3 (Herbicidal rate of 40% or more and less than 70%) | 4 (Herbicidal rate of 70% or more and less than 90%) | 0 (Herbicidal rate of 5% or less (almost no effect)) | 2 (Herbicidal rate of 20% or more and less than 40%) | 3 (Herbicidal rate of 40% or more and less than 70%) | 3 (Herbicidal rate of 40% or more and less than 70%) | 4 (Herbicidal rate of 70% or more and less than 90%)
Cc1nn(C)c(=O)c(-c2c(-c3ccc(OC(F)(F)F)cc3)sc3cc(Cl)c(Cl)cc23)c1O [5-107] | 0 (Herbicidal rate of 5% or less (almost no effect)) | 3 (Herbicidal rate of 40% or more and less than 70%) | 0 (Herbicidal rate of 5% or less (almost no effect)) | 3 (Herbicidal rate of 40% or more and less than 70%) | 3 (Herbicidal rate of 40% or more and less than 70%) | – | – | 3 (Herbicidal rate of 40% or more and less than 70%) | – | 3 (Herbicidal rate of 40% or more and less than 70%) | 0 (Herbicidal rate of 5% or less (almost no effect)) | 3 (Herbicidal rate of 40% or more and less than 70%) | 4 (Herbicidal rate of 70% or more and less than 90%) | 0 (Herbicidal rate of 5% or less (almost no effect)) | – | 2 (Herbicidal rate of 20% or more and less than 40%) | 3 (Herbicidal rate of 40% or more and less than 70%) | 2 (Herbicidal rate of 20% or more and less than 40%) | –
